Assay results taken from the NIST ThermoML archive (doi:10.1021/je900124n).
Where “and” joins values, the source holds several entries; their conditions need not be identical. Identical values can stand only once.

Conditions: Fluid (supercritical or subcritical phases), Buoyancy - hydrostatic balance with magnetic suspension - two sinkers

CCC [propane]
Conditions | mass density
380 K, 4703.9 kPa | 148.078 kg/m3 [middle of 5 runs]
380 K, 4705.6 kPa | 148.36 kg/m3 [middle of 4 runs]
380 K, 4705.7 kPa | 148.363 kg/m3
380 K, 4755.7 kPa | 155.492 kg/m3 [middle of 5 runs]
380 K, 4879.5 kPa | 178.216 kg/m3 and 178.213 kg/m3
380 K, 4879.6 kPa | 178.236 kg/m3 and 178.204 kg/m3 and 178.214 kg/m3
380 K, 4957.6 kPa | 197.127 kg/m3
380 K, 4957.7 kPa | 197.117 kg/m3 and 197.11 kg/m3
380 K, 4957.8 kPa | 197.115 kg/m3 [middle of 4 runs]
380 K, 4957.9 kPa | 197.119 kg/m3
380 K, 5001.3 kPa | 208.689 kg/m3
380 K, 5001.5 kPa | 208.739 kg/m3
380 K, 5002.2 kPa | 208.955 kg/m3 and 208.946 kg/m3 and 208.942 kg/m3
380 K, 5002.3 kPa | 208.948 kg/m3 and 208.946 kg/m3
380 K, 5041.6 kPa | 219.674 kg/m3 and 219.68 kg/m3 and 219.675 kg/m3
380 K, 5041.7 kPa | 219.681 kg/m3 [middle of 4 runs]
380 K, 5067.9 kPa | 226.412 kg/m3 and 226.42 kg/m3
380 K, 5068 kPa | 226.427 kg/m3
380 K, 5068.1 kPa | 226.418 kg/m3
380 K, 5141.5 kPa | 243.559 kg/m3 and 243.562 kg/m3 and 243.564 kg/m3
380 K, 5141.6 kPa | 243.563 kg/m3 [middle of 5 runs]
380 K, 5268.6 kPa | 264.989 kg/m3 and 264.991 kg/m3
380 K, 5268.8 kPa | 264.985 kg/m3 and 264.995 kg/m3
380 K, 5408.3 kPa | 280.991 kg/m3 [middle of 4 runs]
380 K, 5408.4 kPa | 280.991 kg/m3 and 280.992 kg/m3 and 280.986 kg/m3
380 K, 6684.1 kPa | 336.97 kg/m3 and 336.962 kg/m3
380 K, 6684.2 kPa | 336.972 kg/m3
380 K, 6684.3 kPa | 336.974 kg/m3 and 336.97 kg/m3
380 K, 6684.4 kPa | 336.974 kg/m3
380 K, 7975.3 kPa | 360.582 kg/m3
380 K, 7975.4 kPa | 360.58 kg/m3
380 K, 7975.5 kPa | 360.582 kg/m3 [middle of 6 runs]
380 K, 7975.6 kPa | 360.58 kg/m3 and 360.581 kg/m3
380 K, 7975.7 kPa | 360.586 kg/m3
380 K, 7975.8 kPa | 360.584 kg/m3 and 360.583 kg/m3
380 K, 10919 kPa | 391.154 kg/m3 [middle of 4 runs]
380 K, 10920 kPa | 391.156 kg/m3 and 391.155 kg/m3
380 K, 11880 kPa | 398.187 kg/m3 and 398.185 kg/m3
380 K, 11881 kPa | 398.189 kg/m3 and 398.186 kg/m3
380 K, 15945 kPa | 420.987 kg/m3 and 420.99 kg/m3
380 K, 15946 kPa | 420.986 kg/m3
380 K, 19820 kPa | 436.807 kg/m3 and 436.806 kg/m3
380 K, 19821 kPa | 436.811 kg/m3 and 436.808 kg/m3 and 436.81 kg/m3
380 K, 23098 kPa | 447.702 kg/m3 [middle of 5 runs]
380 K, 23099 kPa | 447.703 kg/m3 and 447.702 kg/m3
380 K, 23697 kPa | 449.488 kg/m3 and 449.487 kg/m3 and 449.489 kg/m3
380 K, 29645 kPa | 465.242 kg/m3 and 465.241 kg/m3
380 K, 29646 kPa | 465.242 kg/m3 and 465.241 kg/m3
380 K, 34344 kPa | 475.596 kg/m3 [middle of 4 runs]
380 K, 34345 kPa | 475.597 kg/m3
380.01 K, 954.8 kPa | 14.3809 kg/m3
380.01 K, 954.81 kPa | 14.381 kg/m3
380.01 K, 3513.7 kPa | 73.3411 kg/m3
380.01 K, 5268.9 kPa | 264.989 kg/m3
380.01 K, 6684.6 kPa | 336.973 kg/m3
380.01 K, 6684.7 kPa | 336.971 kg/m3
400 K, 336.43 kPa | 4.5554 kg/m3 and 4.5553 kg/m3
400 K, 599.95 kPa | 8.2683 kg/m3
400 K, 599.96 kPa | 8.2685 kg/m3 and 8.2684 kg/m3
400 K, 956.18 kPa | 13.5094 kg/m3
400 K, 957.16 kPa | 13.5243 kg/m3
400 K, 957.89 kPa | 13.5351 kg/m3
400 K, 959.04 kPa | 13.5529 kg/m3
400 K, 962.98 kPa | 13.6116 kg/m3
400 K, 1542.1 kPa | 22.7724 kg/m3
400 K, 1542.2 kPa | 22.7738 kg/m3 and 22.7745 kg/m3
400 K, 1542.3 kPa | 22.7764 kg/m3
400 K, 1542.4 kPa | 22.7771 kg/m3
400 K, 2380.3 kPa | 37.7472 kg/m3 and 37.7486 kg/m3 and 37.7481 kg/m3
400 K, 2380.5 kPa | 37.7508 kg/m3 and 37.7503 kg/m3
400 K, 3308.6 kPa | 57.6872 kg/m3 [middle of 5 runs]
400 K, 3901.8 kPa | 73.2165 kg/m3 [middle of 4 runs]
400 K, 3901.9 kPa | 73.2188 kg/m3
400 K, 3902 kPa | 73.2191 kg/m3
400 K, 4691.9 kPa | 99.4254 kg/m3 and 99.4238 kg/m3 and 99.4251 kg/m3
400 K, 4692 kPa | 99.4292 kg/m3 and 99.4262 kg/m3
400 K, 5668.4 kPa | 147.912 kg/m3
400 K, 5668.5 kPa | 147.917 kg/m3 [middle of 6 runs]
400 K, 5673.1 kPa | 148.232 kg/m3
400 K, 5673.2 kPa | 148.239 kg/m3 and 148.234 kg/m3 and 148.236 kg/m3
400 K, 5673.3 kPa | 148.236 kg/m3
400 K, 5676.5 kPa | 148.439 kg/m3 and 148.438 kg/m3
400 K, 5676.6 kPa | 148.445 kg/m3 and 148.444 kg/m3 and 148.437 kg/m3
400 K, 5676.7 kPa | 148.447 kg/m3 [middle of 8 runs]
400 K, 5676.8 kPa | 148.451 kg/m3 [middle of 9 runs]
400 K, 5676.9 kPa | 148.458 kg/m3 [middle of 6 runs]
400 K, 5677 kPa | 148.462 kg/m3 [middle of 5 runs]
400 K, 5677.1 kPa | 148.464 kg/m3 and 148.466 kg/m3
400 K, 5677.2 kPa | 148.477 kg/m3 and 148.472 kg/m3
400 K, 5677.4 kPa | 148.487 kg/m3 and 148.49 kg/m3
400 K, 5677.9 kPa | 148.509 kg/m3
400 K, 5678 kPa | 148.518 kg/m3 and 148.516 kg/m3 and 148.517 kg/m3
400 K, 5678.1 kPa | 148.519 kg/m3 and 148.526 kg/m3 and 148.518 kg/m3
400 K, 5678.2 kPa | 148.528 kg/m3 [middle of 13 runs]
400 K, 5678.3 kPa | 148.528 kg/m3 and 148.529 kg/m3
400 K, 5781.6 kPa | 155.313 kg/m3 and 155.311 kg/m3
400 K, 5781.7 kPa | 155.314 kg/m3 and 155.311 kg/m3
400 K, 6338.3 kPa | 196.876 kg/m3 and 196.877 kg/m3
400 K, 6338.4 kPa | 196.877 kg/m3 [middle of 5 runs]
400 K, 6338.5 kPa | 196.877 kg/m3
400 K, 6630.2 kPa | 219.389 kg/m3
400 K, 6630.3 kPa | 219.386 kg/m3 and 219.389 kg/m3
400 K, 6630.4 kPa | 219.389 kg/m3 [middle of 4 runs]
400 K, 6978.6 kPa | 243.19 kg/m3 and 243.192 kg/m3
400 K, 6978.7 kPa | 243.193 kg/m3 and 243.189 kg/m3 and 243.196 kg/m3
400 K, 6978.8 kPa | 243.19 kg/m3
400 K, 6978.9 kPa | 243.193 kg/m3
400 K, 7736.9 kPa | 280.444 kg/m3 and 280.447 kg/m3
400 K, 7737 kPa | 280.444 kg/m3
400 K, 7737.1 kPa | 280.449 kg/m3 and 280.444 kg/m3
400 K, 7737.2 kPa | 280.444 kg/m3
400 K, 7737.3 kPa | 280.449 kg/m3 and 280.45 kg/m3
400 K, 7912.9 kPa | 286.854 kg/m3
400 K, 7913.2 kPa | 286.868 kg/m3 and 286.866 kg/m3 and 286.857 kg/m3
400 K, 7913.4 kPa | 286.864 kg/m3
400 K, 10112 kPa | 336.235 kg/m3 [middle of 5 runs]
